In BindingDB's records for doi:10.1016/S0960-894X(00)80224-3 (1992):

molecular target: Gastrin/cholecystokinin type B receptor (Cavia porcellus); assay: Displacement of [125I]CCK-OP radioligand from Cholecystokinin type B receptor of guinea pig cortical membranes

Row | IC50 | SMILES
1 | > 10 µM | O=C(N[C@@H]1C(=O)N(c2ccccc2)C[C@@H]1C(=O)O)c1ccc2ccccc2c1 [(3S,4S)-4-[(Naphthalene-2-carbonyl)-amino]-5-oxo-1-phenyl-pyrrolidine-3-carboxylic acid]
2 | > 10 µM | O=C(N[C@@H]1C(=O)N(c2ccccc2F)C[C@@H]1C(=O)O)c1cnc2ccccc2c1 [(3S,4S)-1-(2-Fluoro-phenyl)-5-oxo-4-[(quinoline-3-carbonyl)-amino]-pyrrolidine-3-carboxylic acid]
3 | > 10 µM | O=C(N[C@H]1C(=O)N(c2ccccc2)C[C@@H]1C(=O)O)c1ccc2ccccc2c1 [(3S,4R)-4-[(Naphthalene-2-carbonyl)-amino]-5-oxo-1-phenyl-pyrrolidine-3-carboxylic acid]
4 | > 10 µM | O=C(N[C@@H]1C(=O)N(c2ccccc2F)C[C@@H]1C(=O)O)c1ccc2ccccc2c1 [(3S,4S)-1-(2-Fluoro-phenyl)-4-[(naphthalene-2-carbonyl)-amino]-5-oxo-pyrrolidine-3-carboxylic acid]
